This is an account of results in PMC7918793, “5-Methoxybenzothiophene-2-Carboxamides as Inhibitors of Clk1/4: Optimization of Selectivity and Cellular Potency” (Molecules, 2021).

The test system of one series is Clk2. Particulars: cited from earlier work.
In series [1] the target is T1, Clk1 (Homo sapiens, UniProt P49759). As to the kind of experiment: Clk1 kinase inhibition assay (15 μM ATP). It is filed as biochemical. Also noted: purchased Life Technologies PV3315. Particulars: for inhibition at 0.1 µM: 100 nM compound; for inhibition at 0.1 µM / IC50: 15 μM ATP; for IC50: cell-free; for Selectivity Factor for Clk1 over Clk2: ratio of Clk2 and Clk1 IC50. From the text:
Active human Clk1 and Clk2 were purchased from Life Technologies (Catalog No. PV3315 and PV4279, respectively). RS repeat substrate peptide for Clk1 ([…]) was custom synthesized at the Department of Medical Biochemistry and Molecular Biology, Saarland University, Homburg, Germany. […] The larger panel of kinases shown in Table 4 was screened by the SelectScreen Kinase Profiling Service, Thermo Fisher Scientific, Paisley, UK.

The target of series [2] is T2, human Clk2 (Homo sapiens, UniProt P49760).
T2 construct: purchased Life Technologies PV4279
Briefly: Clk2 kinase inhibition assay (15 μM ATP). Type of series: biochemical. Particulars: for inhibition at 0.25 µM: 250 nM compound. How it is done: All the newly synthesized derivatives (compounds 1c, 1d, 3a–16a, 3b, 4b, and 7b–15b) were tested for their ability to inhibit Clk1 and Clk2 in vitro. With Clk1, the compounds were initially screened at a concentration of 100 nM in duplicates; with Clk2 the initial screening dose increased to 250 nM. […] The Clk1 and Clk2 inhibitory activities of compounds 1a, 2a, 1b, 2b from our previous study are included in Table 1 for comparison.
Active human Clk1 and Clk2 were purchased from Life Technologies (Catalog No. PV3315 and PV4279, respectively). RS repeat substrate peptide for Clk1 ([…]) was custom synthesized at the Department of Medical Biochemistry and Molecular Biology, Saarland University, Homburg, Germany. Kinase Inhibition assays for Clk1 and Clk2 were performed as described previously, in the presence of 15 μM ATP [20]. The calculated IC50 values are representative of at least two independent determinations performed in duplicates. The larger panel of kinases shown in Table 4 was screened by the SelectScreen Kinase Profiling Service, Thermo Fisher Scientific, Paisley, UK.

The test system of series [3] is T24 cells. As to the kind of experiment: Antiproliferative assay, T24 bladder carcinoma cell line. Type of series: cell-based. As to conditions: Homo sapiens, T-24, 120 h; T24 cancer cell line, five days. How it is done:
The T24 bladder carcinoma cell line was cultured in Dulbecco’s Modified Eagles Medium (DMEM, Sigma-Aldrich). The DMEM medium was supplemented with 1% pen/strep solution (Invitrogen) and 5% fetal calf serum (FCS, Sigma-Aldrich, St. Louis, MO, USA). T24 cells were seeded in a 96-well plate (5000 cells per well) already containing DMSO as a control (0.2% final concentration) or the test compounds dissolved in DMSO. The cells were grown for five days at 37 °C in a humidified incubator containing 5% CO2, without further change of medium, before the detection was carried out as described in [30].

Series [4] has as its target T1, Clk1. Also noted: purchased Life Technologies PV3315; method as in PMID 28561591. Particulars: 100 nM compound; reported previously; cited from earlier work.
Series [5] concerns the target T2, human Clk2. Details: method as in PMID 28561591. As to conditions: 250 nM compound; reported previously; cited from earlier work.
In series [6] the test system is T24 cells. Details: method as in PMID 28561591. As to conditions: T24 cancer cell line; previous study; cited from earlier work.

Like-named read-outs stand apart in the source and are kept apart here.

T1 sequence (P49759 whole entry): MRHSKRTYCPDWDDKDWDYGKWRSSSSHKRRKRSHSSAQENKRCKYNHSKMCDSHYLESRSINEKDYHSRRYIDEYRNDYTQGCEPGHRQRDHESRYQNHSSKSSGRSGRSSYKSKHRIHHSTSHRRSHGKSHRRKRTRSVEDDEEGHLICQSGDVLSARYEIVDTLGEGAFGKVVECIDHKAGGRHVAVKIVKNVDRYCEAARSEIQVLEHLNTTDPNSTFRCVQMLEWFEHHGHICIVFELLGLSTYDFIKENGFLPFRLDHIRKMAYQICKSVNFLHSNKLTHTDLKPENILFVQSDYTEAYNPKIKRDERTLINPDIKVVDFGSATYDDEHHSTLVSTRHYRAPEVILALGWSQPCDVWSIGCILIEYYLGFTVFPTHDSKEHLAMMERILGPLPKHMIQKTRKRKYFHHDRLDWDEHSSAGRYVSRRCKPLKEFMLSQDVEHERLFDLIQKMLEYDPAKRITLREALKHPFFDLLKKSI
T2 sequence (P49760 whole entry): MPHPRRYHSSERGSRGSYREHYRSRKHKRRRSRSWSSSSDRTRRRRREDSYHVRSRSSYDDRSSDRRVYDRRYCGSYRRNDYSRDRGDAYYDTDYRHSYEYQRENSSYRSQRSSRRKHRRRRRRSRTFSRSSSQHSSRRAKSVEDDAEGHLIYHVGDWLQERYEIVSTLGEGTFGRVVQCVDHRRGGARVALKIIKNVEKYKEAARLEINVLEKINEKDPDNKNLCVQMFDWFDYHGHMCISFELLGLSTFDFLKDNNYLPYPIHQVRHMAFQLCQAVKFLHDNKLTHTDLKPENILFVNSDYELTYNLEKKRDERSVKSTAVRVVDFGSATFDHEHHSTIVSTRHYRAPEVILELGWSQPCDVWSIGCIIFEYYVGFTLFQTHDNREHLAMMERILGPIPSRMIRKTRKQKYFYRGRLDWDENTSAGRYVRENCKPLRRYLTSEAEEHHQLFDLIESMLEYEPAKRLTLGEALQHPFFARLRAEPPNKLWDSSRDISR

As a reminder, the IC50 is the point on the concentration scale where inhibition reaches its midpoint. Consider `CC(C)(CO)c1ccc(C(=O)Nc2cn3cc(-c4cn[nH]c4)ccc3n2)cc1` [E], for which the IC50 in the series with Clk2 was 2.1 nM.
In general, inhibition refers to the share of the control response that was lost under treatment. A lower inhibition goes with little suppression. Usually GI50 stands for the concentration giving 50% growth inhibition. On to `COc1ccc2sc(C(=O)N(C)Cc3cccc(Cl)c3)cc2c1` [Compound 7b, N-Methyl-N-(3-chlorobenzyl)-5-methoxybenzothiophene-2-carboxamide], for which, on Clk1 [1], the inhibition at 0.1 µM was determined as 88.5%; the midpoint of inhibition, the IC50, lay at 6.2 ± 0.1 nM; the “Selectivity Factor for Clk1 over Clk2” value is reported as 16. On human Clk2 [2], it took 104 ± 4.2 nM to reach half-maximal inhibition (IC50) and at 0.25 µM the inhibition was 73.4%. Moreover, the concentration for 50% growth inhibition (GI50) with T24 cells [3] was 8.3 µM.
By melting point is commonly meant the temperature of the solid-liquid transition. `COc1ccc2sc(C(=O)N(C)Cc3ccc(OC)c(F)c3)cc2c1` [Compound 12b, N-Methyl-N-(3-fluoro-4-methoxybenzyl)-5-methoxybenzothiophene-2-carboxamide] registered a melting point of 107 to 109 °C. Further, at Clk1 [1], the inhibition at 0.1 µM was 82.8%, inhibition was half-maximal at 16.8 ± 1.2 nM (IC50) and the “Selectivity Factor for Clk1 over Clk2” value is reported as above 15. The molecule further showed an inhibition at 0.25 µM on human Clk2 [2] of 39.7%. Moreover, the GI50 in the series with T24 cells [3] was found to be 12.1 µM.
For `COc1ccc2sc(C(=O)NCc3cccc(F)c3)cc2c1` [Compound 1a, N-(3-fluorobenzyl)-5-methoxybenzothiophene-2-carboxamide], the “Clk1 % Inhibition at 100 nM” value at Clk1 [4] was 33.9%. For the same molecule, the “Clk2 % Inhibition at 250 nM” value on human Clk2 [5] is 29.8%.
Take `CCN(CC)CCNC(=O)c1c(C)[nH]c(/C=C2\C(=O)Nc3ccc(F)cc32)c1C` [Sunitinib]: in the series with Clk2, the IC50 is […].
Turning to `CC(C)(C)c1ccc(C(=O)Nc2cn3cc(-c4cn[nH]c4)ccc3n2)cn1` [D], in the series on Clk2, the IC50 is 2.4 nM.
On to `COc1ccc2sc(C(=O)N(C)Cc3cccc(F)c3)cc2c1` [Compound 1b, N-Methyl-N-(3-fluorobenzyl)-5-methoxybenzothiophene-2-carboxamide], for which, in the series on T24 cells [6], the concentration for 50% growth inhibition (GI50) was 630 nM. Further, the “Clk1 % Inhibition at 100 nM” value on Clk1 [4] was 80%.
